Laboratory results taken from US20240140970A1, “A […], AND PREPARATION METHOD AND USE THEREOF” (ASCENTAWITS PHARMACEUTICALS, LTD., priority 2021, published 2024).
“And” between values parts separate entries of the source, which are not always exact repeats. Equal entries are not always repeated.

Assay: Freeze/thaw stability of AST-2660 in human plasma (LC-MS/MS)
Type: in vitro ADME
Procedure: The detection method established in example 4 was used to detect the content of AST-2660 in the human plasma to be tested.
Matrix: the mixed normal human plasma containing anticoagulant (K2 EDTA) • a: the internal standard working solution: AST-2660-D8 was taken, added with methanol, and diluted to prepare a solution containing about 100 ng per 1 ml. • b: the solution to be tested (no internal standard compound was added to the solution to be tested at this time): it was obtained by taking a blood sample to be tested. • c: the standard working solution (no internal standard compound was added to the standard working solution at this time): an appropriate amount of AST-2660 was taken and accurately weighed, dissolved with methanol, and diluted to prepare a solution containing about 1.0 mg per 1 ml, which was used as the standard working stock solution. An appropriate amount of the standard working stock solution was taken, added with the matrix and diluted to prepare standard working solutions with different concentrations containing about 200 ng, 160 ng, 100 ng, 50 ng, 10 ng, 2.0 ng, 1.0 ng and 0.5 ng per 1 ml, respectively. (The solution was stored at −70° C.) • d: the quality control sample solution: an appropriate amount of AST-2660 was taken and accurately weighed, dissolved with methanol, and diluted to prepare a solution containing about 10 μg per 1 ml, which was used as the quality control working stock solution. An appropriate amount of the quality control working stock solution was taken, added with matrix to prepare quality control working solutions with different concentrations containing about 150 ng, 60 ng, 15 ng, 1.5 ng and 0.5 ng per 1 ml. (The solution was stored at −70° C.)
The solution to be tested, the standard working solution and the quality control sample solution were thawed at room temperature and mixed uniformly. 100 μl of the above solution was respectively taken, added with 20 μl of the internal standard and 500 μl of methanol, and vortexed for 3 minutes to mix uniformly, and then centrifuged for 10 minutes at 2143 rcf. 450 μl of the supernatant was taken and dried, and 150 μl of methanol was added for redissolution, and sonicated. Then the plates were centrifuged for 3 minutes at 4° C. It was obtained by taking […] of supernatant.
Liquid phase conditions: A SHARC 1, 3 μm, 2.1*50 mm or chromatograph column with equivalent performance was used; the mobile phase was a methanol solution comprising low content of ammonium acetate; the mobile phase B was acetonitrile; the gradient elution was performed according to the following table, column temperature: 20° C.; injection volume: 5 μl.
Mass spectrometric conditions: electrospray ion source with negative ion scanning mode; spray potential: −4500 V; ion source temperature: 500° C.; collision energy (CE): −22 eV; declustering potential (DP): −55V; entrance potential (EP): −10V; collision chamber exit potential (CXP): −16V; dwell time: 100 ms; high purity nitrogen was used for all gases; AST-2660 ions pairs: m/z 147.0→m/z 62.9; the internal standard AST-2660-D8 ion pairs: m/z 155.0→m/z 62.9.
The AST-2660 standard working solution, blank sample, zero concentration sample, sample solution to be tested and quality control sample solution with different concentrations after extraction were respectively taken and injected into LC-MS/MS for detection.
Calculation results: the relationship function y=f (x) of the ratio of the peak area of the AST-2660 to that of the internal standard was obtained from AST-2660 standard working solutions with different concentrations. The ratio of the peak area of the AST-2660 to that of the internal standard was determined from the solution to be tested after extraction, and substituted into the relationship function y=f (x) to calculate the concentration of the metabolite II in the solution to be tested.

[1] = DilQC (10-fold dilution) nominal 1500 ng/ml, 5 freeze/thaw cycles at −20° C.
[2] = DilQC (10-fold dilution) nominal 1500 ng/ml, 5 freeze/thaw cycles at −70° C.
[3] = QC1 nominal 1.50 ng/ml, 5 freeze/thaw cycles at −20° C.
[4] = QC1 nominal 1.50 ng/ml, 5 freeze/thaw cycles at −70° C.
[5] = QC4 nominal 150 ng/ml, 5 freeze/thaw cycles at −20° C.
[6] = QC4 nominal 150 ng/ml, 5 freeze/thaw cycles at −70° C.

In the case of `O=P([O-])(N1CC1)N1CC1.[Na+]` [AST-2660], the “AST-2660 concentration, Mean value” [1] is reported as 1288 ng/mL, the “AST-2660 concentration, single replicates” value [1] is reported as 1310 ng/ml (2×) and 1250 ng/ml and 1280 ng/ml and the “RE (%) vs nominal” value [1] is reported as −14.2%. For the same molecule, the “AST-2660 concentration, Mean value” [2] was 1540 ng/mL, the “AST-2660 concentration, single replicates” value [2] was 1650 ng/ml and 1500 ng/ml (2×) and 1510 ng/ml and the “RE (%) vs nominal” value [2] was 2.7%. The “AST-2660 concentration, Mean value” [3] was 1.13 ng/mL, the “AST-2660 concentration, single replicates” value [3] was 1.13 ng/mL and 1.18 ng/mL and 1.14 ng/mL and 1.06 ng/mL and the “RE (%) vs nominal” value [3] was −24.8%. For the same molecule, the “AST-2660 concentration, Mean value” [4] was 1.60 ng/mL, the “AST-2660 concentration, single replicates” value [4] was 1.69 ng/mL and 1.72 ng/mL and 1.47 ng/mL and 1.51 ng/mL and the “RE (%) vs nominal” value [4] was 6.5%. For the same molecule, the “AST-2660 concentration, Mean value” [5] was 140 ng/mL, the “AST-2660 concentration, single replicates” value [5] was 136 ng/mL and 138 ng/mL and 152 ng/mL and 132 ng/mL and the “RE (%) vs nominal” value [5] was −7.0%. The “AST-2660 concentration, Mean value” [6] was 149 ng/mL, the “AST-2660 concentration, single replicates” value [6] was 145 ng/ml and 148 ng/ml (2×) and 154 ng/ml and the “RE (%) vs nominal” value [6] was −0.8%. For the same molecule, the “change of AST-2660 content (in words)” value (freeze-thaw process from −20° C. to room temperature) was “reduced significantly” and the “change of AST-2660 content (in words)” value (freeze-thaw process from −70° C. to room temperature) was “almost no reduction”.
